What was measured:
[1] = Pharmacokinetics test (hepatic microsome stability test); conditions: human hepatic microsome 1 mg/mL, 37° C., 60 min, 1 μmol/L
[2] = target: rat EP4 receptor (Rattus norvegicus (Rat), UniProt P43114); assay: EP4 antagonistic activity measurement using prostanoid receptor subtype expressing cells (cAMP); type: cell-based; conditions: CHO cells expressing rat EP4 receptor; inhibition of cAMP production by PGE2 10 nM
Procedure: CHO cells expressing rat EP4 receptor subtypes were prepared according to the methods of Nishigaki et al. (FEBS Letters, Vol. 364, p. 339-341, 1995), and used for experiment. Cultured subconfluent cells were detached, and suspended in an assay medium (MEM containing 1 mmol/L IBMX, 1% HSA) in a concentration of 1×10^6 cells/mL. For reaction, PGE2 was added to the cell suspension (25 μL) in a final concentration of 10 nmol/L, either alone or as a 25-μL PGE2 solution containing the test compound. After 30 minutes of reaction at room temperature, the amount of cAMP in the cells was quantified according to the method in the descriptions of the cAMP assay kit (CISBIO).
The antagonistic effect (IC50 value) of the test compound was calculated as a value that represents an inhibition rate against a reaction with PGE2 alone at 10 nM, a concentration that produces a submaximal cAMP producing effect.

rat EP4 receptor, sequence (P43114 whole entry): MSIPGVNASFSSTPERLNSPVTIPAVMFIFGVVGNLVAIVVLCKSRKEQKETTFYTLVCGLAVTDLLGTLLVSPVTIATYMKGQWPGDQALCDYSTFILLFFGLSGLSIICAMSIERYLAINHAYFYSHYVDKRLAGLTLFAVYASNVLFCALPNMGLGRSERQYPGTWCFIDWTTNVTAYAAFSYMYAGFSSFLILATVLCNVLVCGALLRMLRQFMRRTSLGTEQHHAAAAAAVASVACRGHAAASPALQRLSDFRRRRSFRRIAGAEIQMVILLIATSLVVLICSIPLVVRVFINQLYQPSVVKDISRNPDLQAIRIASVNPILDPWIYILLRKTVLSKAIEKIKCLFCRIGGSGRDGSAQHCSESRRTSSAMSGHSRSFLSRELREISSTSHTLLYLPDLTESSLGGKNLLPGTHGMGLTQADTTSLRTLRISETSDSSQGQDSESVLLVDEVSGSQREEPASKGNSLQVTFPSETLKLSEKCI

Structure (SMILES) | Remaining rate (%) [1] [%] | IC50 [2] [nM]
CC(C)NC(=O)c1cc2c(cc1F)OCC[C@]21C[C@H]1C(=O)Nc1cc(C#N)ccc1CCCC(=O)O [Example 20-5, 4-[4-Cyano-2-({[(2′R,4S)-7-fluoro-6-(isopropylcarbamoyl)-2,3-dihydrospiro[chromene-4, 1′-cyclopropan]-2′-yl]carbonyl}amino)phenyl]butanoic acid] | 100 | 9.5
N#Cc1ccc(CCCC(=O)O)c(NC(=O)[C@@H]2C[C@]23CCOc2ccc(C(=O)Nc4ccccn4)cc23)c1 [Example 2-23, 4-[4-Cyano-2-({[(2′R,4S)-6-(2-pyridinylcarbamoyl)-2,3-dihydrospiro[chromene-4,1′-cyclopropan]-2′-yl]carbonyl}amino)phenyl]butanoic acid] | 100 | 4.5
CCOCCNC(=O)c1ccc2c(c1)[C@]1(CCO2)C[C@H]1C(=O)Nc1cc(C#N)ccc1CCCC(=O)O [Example 2-45, 4-{4-Cyano-2-[({(2′R,4S)-6-[(2-ethoxyethyl)carbamoyl]-2,3-dihydrospiro[chromene-4,1′-cycopropan]-2′-yl}carbonyl)amino]phenyl}butanoic acid] | 100 | 8.3
CNC(=O)c1cc2c(cc1F)OCC[C@]21C[C@H]1C(=O)Nc1cc(C#N)ccc1CCCC(=O)O [Example 20-1] | 88 | 8.5
N#Cc1ccc(CCCC(=O)O)c(NC(=O)[C@@H]2C[C@]23CCOc2ccc(-c4cccnc4)cc23)c1 [Example 7-3, 4-[4-Cyano-2-({[(2′R,4S)-6-(3-pyridinyl)-2,3-dihydrospiro[chromene-4,1′-cyclopropan]-2′-yl]carbonyl}amino)phenyl]butanoic acid] | 72 | 3.8
CNC(=O)c1ccc2c(c1)[C@@]1(C[C@H]1C(=O)Nc1cc(C#N)ccc1CCCC(=O)O)CC2(C)C [Example 38-2, 4-[4-Cyano-2-({[(1S,2R)-3′,3′-dimethyl-6′-(methylcarbamoyl)-2′,3′-dihydrospiro[cyclopropane-1, 1′-inden]-2-yl]carbonyl}amino)phenyl]butanoic acid] | 89 | 4.3
N#Cc1ccc(CCCC(=O)O)c(NC(=O)[C@@H]2C[C@]23CCOc2ccc(N4CCCC4=O)cc23)c1 [Example 7-10, 4-[4-Cyano-2-({[(2′R,4S)-6-(2-oxo-1-pyrrolidinyl)-2,3-dihydrospiro[chromene-4,1′-cyclopropan]-2′-yl]carbonyl}amino)phenyl]butanoic acid] | 89 | 8.6
N#Cc1ccc(CCCC(=O)O)c(NC(=O)[C@@H]2C[C@]23CCOc2ccc(-c4ncco4)cc23)c1 [Example 10-3, 4-[4-Cyano-2-({[(2′R,4S)-6-(1,3-oxazol-2-yl)-2,3-dihydrospiro[chromene-4,1′-cyclopropan]-2′-yl]carbonyl}amino)phenyl]butanoic acid] | 87 | 5.7
COCCNC(=O)c1ccc2c(c1)OCC[C@]21C[C@H]1C(=O)Nc1cc(C#N)ccc1CCCC(=O)O [Example 28-2, 4-{4-Cyano-2-[({(2′R,4S)-7-[(2-methoxyethyl)carbamoyl]-2,3-dihydrospiro[chromene-4,1′-cyclopropan]-2′-yl}carbonyl)amino]phenyl}butanoic acid] | 100 | 6.9
N#Cc1ccc(CCCC(=O)O)c(NC(=O)[C@@H]2C[C@]23CCOc2ccc(C(=O)Nc4cccnn4)cc23)c1 [Example 2-29, 4-[4-Cyano-2-({[(2′R,4S)-6-(3-pyridazinylcarbamoyl)-2,3-dihydrospiro[chromene-4,1′-cyclopropan]-2′-yl]carbonyl}amino)phenyl]butanoic acid] | 80 | 2.5
CNC(=O)c1ccc2c(c1)OCC[C@]21C[C@H]1C(=O)Nc1cc(C#N)ccc1CCCC(=O)O [Example 28-1, 4-[4-Cyano-2-({[(2′R,4S)-7-(methylcarbamoyl)-2,3-dihydrospiro[chromene-4,1′-cyclopropan]-2′-yl]carbonyl}amino)phenyl]butanoic acid] | 91 | 6.4
N#Cc1ccc(CCCC(=O)O)c(NC(=O)[C@@H]2C[C@]23CCOc2ccc(-c4ccccc4)cc23)c1 [Example 7-1, 4-[4-Cyano-2-({[(2′R,4S)-6-phenyl-2,3-dihydrospiro[chromene-4,1′-cyclopropan]-2′-yl]carbonyl}amino)phenyl]butanoic acid] | 81 | 17
CNc1ccc(-c2ccc3c(c2)[C@]2(CCO3)C[C@H]2C(=O)Nc2cc(C#N)ccc2CCCC(=O)O)cn1 [Example 7-21, 4-{4-Cyano-2-[({(2′R,4S)-6-[6-(methylamino)-3-pyridinyl]-2,3-dihydrospiro[chromene-4,1′-cyclopropan]-2′-yl}carbonyl)amino]phenyl}butanoic acid] | 76 | 10
N#Cc1ccc(CCCC(=O)O)c(NC(=O)[C@@H]2C[C@]23CCOc2ccc(-c4cnc5[nH]ccc5c4)cc23)c1 [Example 7-19, 4-[4-Cyano-2-({[(2′R,4S)-6-(1H-pyrrolo[2,3-b]pyridin-5-yl)-2,3-dihydrospiro[chromene-4,1′-cyclopropan]-2′-yl]carbonyl}amino)phenyl]butanoic acid] | 100 | 4.5
N#Cc1ccc(CCCC(=O)O)c(NC(=O)[C@@H]2C[C@]23CCOc2ccc(C(=O)NC4CCOCC4)cc23)c1 [Example 2-40, 4-[4-Cyano-2-({[(2′R,4S)-6-(tetrahydro-2H-pyran-4-ylcarbamoyl)-2,3-dihydrospiro[chromene-4,1′-cyclopropan]-2′-yl]carbonyl}amino)phenyl]butanoic acid] | 100 | 7.2
CN1CC[C@H](NC(=O)c2ccc3c(c2)[C@]2(CCO3)C[C@H]2C(=O)Nc2cc(C#N)ccc2CCCC(=O)O)C1 [Example 2-33, 4-[4-Cyano-2-({[(2′R,4S)-6-{[(3S)-1-methyl-3-pyrrolidinyl]carbamoyl}-2,3-dihydrospiro[chromene-4,1′-cyclopropan]-2′-yl]carbonyl}amino)phenyl]butanoic acid] | 89 | 9.7
N#Cc1ccc(CCCC(=O)O)c(NC(=O)[C@@H]2C[C@]23CCOc2ccc(C(=O)Nc4ncccn4)cc23)c1 [Example 2-36, 4-[4-Cyano-2-({[(2′R,4S)-6-(2-pyrimidinylcarbamoyl)-2,3-dihydrospiro[chromene-4,1′-cyclopropan]-2′-yl]carbonyl}amino)phenyl]butanoic acid] | 100 | 5.4
COCCNC(=O)c1ccc2c(c1)[C@]1(CO2)C[C@H]1C(=O)Nc1cc(C#N)ccc1CCCC(=O)O [Example 37-2, 4-{4-Cyano-2-[({(2′R,3S)-5-[(2-methoxyethyl)carbamoyl]spiro[1-benzofuran-3,1′-cyclopropan]-2′-yl}carbonyl)amino]phenyl}butanoic acid] | 87 | 6.2
COCCNC(=O)c1ccc2c(c1)[C@]1(CC2)C[C@H]1C(=O)Nc1cc(C#N)ccc1CCCC(=O)O [Example 18-2, 4-{4-Cyano-2-[({(1R,2R)-6′-[(2-methoxyethyl)carbamoyl]-2′,3′-dihydrospiro[cyclopropane-1,1′-inden]-2-yl}carbonyl)amino]phenyl}butanoic acid] | 100 | 3

Reference: US10077247B2, “Tricyclic spiro compound” (ONO PHARMACEUTICAL CO., LTD., priority 2015, dated 2018)
